Target: T1, Axl (Homo sapiens, UniProt P30530)
T1 construct: endogenous in cells; host or cells: HeLa cells
T1 sequence (P30530 26-894): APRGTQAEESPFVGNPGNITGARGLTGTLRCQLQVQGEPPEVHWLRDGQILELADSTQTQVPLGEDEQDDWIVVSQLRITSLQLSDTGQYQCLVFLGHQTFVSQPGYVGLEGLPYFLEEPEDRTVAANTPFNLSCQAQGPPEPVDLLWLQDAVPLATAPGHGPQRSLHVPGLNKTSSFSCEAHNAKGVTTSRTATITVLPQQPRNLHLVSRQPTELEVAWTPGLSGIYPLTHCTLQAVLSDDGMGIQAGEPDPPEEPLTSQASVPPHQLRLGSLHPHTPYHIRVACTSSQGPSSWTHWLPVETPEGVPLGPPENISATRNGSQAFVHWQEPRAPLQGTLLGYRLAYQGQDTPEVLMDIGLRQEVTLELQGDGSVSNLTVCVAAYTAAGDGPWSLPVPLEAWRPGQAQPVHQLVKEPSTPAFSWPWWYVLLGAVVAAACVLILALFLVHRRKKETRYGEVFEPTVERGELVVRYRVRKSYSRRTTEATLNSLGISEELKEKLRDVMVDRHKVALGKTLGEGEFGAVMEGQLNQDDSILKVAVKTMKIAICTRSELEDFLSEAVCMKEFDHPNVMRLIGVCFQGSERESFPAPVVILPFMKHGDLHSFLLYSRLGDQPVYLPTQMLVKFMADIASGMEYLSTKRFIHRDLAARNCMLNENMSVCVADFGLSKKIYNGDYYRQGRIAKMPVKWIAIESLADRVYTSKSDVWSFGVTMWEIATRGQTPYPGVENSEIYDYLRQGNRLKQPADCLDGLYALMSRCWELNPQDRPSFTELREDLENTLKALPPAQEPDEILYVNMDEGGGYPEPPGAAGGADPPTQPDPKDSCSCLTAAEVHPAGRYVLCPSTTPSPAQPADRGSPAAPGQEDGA
Assay: Phospho-Akt in-cell Western assay
Format: cell-based
Conditions: Hela cells, Axl antibody cross-linking stimulation, phospho-Akt readout
Method: Phospho-Akt in-Cell Western Assay
The compounds of the invention were tested in the following assay for their ability to inhibit Axl activity.
• Cell culture plate: 96 well assay plate (Corning 3610), white, clear bottom, tissue-culture treated. • Cells: Hela cells. • Starvation medium: For Axl stimulation: 0.5% FCS (fetal calf serum) in DMEM, plus Axl/Fc (extracellular domain of AXL fused to immunoglobulin Fc region) (R&D, 154-AL) 500 ng/mL. • For EGF (epidermal growth factor) stimulation: 0.5% FCS in DMEM (Dulbecco's modified Eagles medium). • Poly-L-Lysine 0.01% solution (the working solution): 10 μg/ml, dilute In PBS (phosphate buffered saline). • Axl antibody cross-linking: • 1st: Mouse anti-Axl (R&D, MAB154). • 2nd: Biotin-SP-conjugated AffiniPure goat anti-mouse IgG (H+L) (Jackson ImmunoResearch #115-065-003). • Fixing buffer: 4% formaldehyde in PBS. • Wash buffer: 0.1% TritonX-100 in PBS. • Quenching buffer: 3% H2O2, 0.1% Azide in wash buffer, Azide and hydrogen peroxide (H2O2) are added fresh. • Blocking buffer: 5% BSA in TBST (tris buffered saline plus 0.1% Tween 20). • Primary antibody: Rabbit anti-human Phospho-Akt antibody (Cell Signaling 9271): 1×250 diluted in blocking buffer. • Secondary antibody: HRP (horse radish peroxidase)-conjugated Goat anti-Rabbit secondary, stock solution: Jackson ImmunoResearch (Goat anti-Rabbit HRP, #111-035-144) 1:1 diluted in glycerol, store at −20° C. The working solution: 1×2000 dilution of stock in blocking buffer. • Chemiluminescent working solution (Pierce, 37030): SuperSignal ELISA (enzyme linked immunosorbant assay) Pico Chemiluminescent substrate. • Crystal Violet solution: Stock: 2.5% Crystal violet in methanol, filtered and kept at ambient temperature. The working solution: dilute the stock 1:20 with PBS immediately before use. • 10% SDS: working solution: 5% SDS (sodium dodecylsulfate), diluted in PBS Methods: Day 1:
A 96 well TC (tissue culture treated) plate was coated with 10 μg/mL poly-L-Lysine at 37° C. for 30 min, washed twice with PBS, and air-dried for 5 minutes before cells were added. Hela cells were seeded at 10,000 cells/well and the cells were starved in 100 μL starvation medium containing Axl/Fc for 24 hrs.
The cells were pre-treated with test compounds by adding 100 μL of 2× test compound to the starvation medium on the cells. The cells were incubated at 37° C. for 1 hr before stimulation.
The cells were stimulated by Axl-antibody cross-linking as follows: A 5×1st/2nd Axl antibody mixture was made (37.5 μg/mL 1st/100 μg/mL 2nd) in starvation medium and nutated at 4° C. with thorough mixing for 1-2 hours for clustering. The resulting mix was warmed to 37° C. 50 μL of 5× Axl 1st/2nd of antibody cluster was added to the cells and the cells were incubated at 37° C. for 5 min.
After 5 minutes stimulation, the plate was flicked to remove medium and the plate was tapped onto paper towels. Formaldehyde (4.0% in PBS, 100 μL) was added to fix the cells and the cells were incubated at ambient temperature for 20 min without shaking.
The cells were washed with a plate washer buffer to remove the formaldehyde solution. The plate was flicked to removed excess wash buffer and tapped onto paper towels. Quenching buffer (100 μL) was added to each well and the cells were incubated at ambient temperature for 20 minutes without shaking.
The cells were washed with a plate washer buffer to remove the quenching buffer. Blocking buffer (100 μL) was added and the cells were incubated at ambient temperature for at least an hour with gentle shaking.
The cells were washed with a plate washer buffer and diluted primary antibody (50 μL) was added to each well (blocking buffer was added to the negative control wells instead). The plates were incubated overnight at 4° C. with gentle shaking.
The wash buffer was removed, diluted secondary antibody (100 μL) was added, and the cells were incubated at ambient temperature for 1 hour with gentle shaking. […]

CC(C)CN(CC(C)C)[C@H]1CCc2ccc(Nc3nc(N)n(-c4cc(-c5ccccc5)c5c(n4)C4CCN5CC4)n3)cc2CC1 [Compound 41, (7S)-1-(1,4-ethano-8-phenyl-1,2,3,4-tetrahydro-1,5-naphthyridin-6-yl)-N^3-(7-(diisobutylamino)-6,7,8,9-tetrahydro-5H-benzo[7]annulene-2-yl)-1H-1,2,4-triazole-3,5-diamine]
IC50 (Table 4, formula (III)): < 1000 nM

Nc1nc(Nc2ccc(N3CCC(N4CCCC4)CC3)c(F)c2)n(-c2nnc(Cl)c3c2C2CCC3CC2)n1 [Compound 14, 1-(4-chloro-5,8-ethano-5,6,7,8-tetrahydrophthalazine-1-yl)-N^5-(4-(4-(pyrrolidin-1-yl)piperidinyl)-3-fluorophenyl)-1H-1,2,4-triazole-3,5-diamine]
IC50 (Table 6, formula (IVb)): 1000 to 10000 nM

Nc1nc(Nc2ccc3c(c2)CC[C@@H](N)CC3)nn1-c1cc(-c2ccccc2)c2c(n1)C1CCN2CC1 [Compound 26, (7S)-1-(1,4-ethano-8-phenyl-1,2,3,4-tetrahydro-1,5-naphthyridin-6-yl)-N^3-(7-amino-6,7,8,9-tetrahydro-5H-benzo[7]annulene-2-yl)-1H-1,2,4-triazole-3,5-diamine]
IC50 (Table 4, formula (III)): < 1000 nM

C[C@H]1CN(c2ccc(Nc3nc(N)n(-c4nnc(-c5ccccc5Cl)c5c4C4CCC5CC4)n3)cn2)CCN1CC1CC1 [Compound 22, (3S)-1-(4-(2-chlorophenyl)-5,8-ethano-5,6,7,8-tetrahydrophthalazine-1-yl)-N^3-(6-(4-(cyclopropylmethyl)-3-methylpiperazin-1-yl)pyridin-3-yl)-1H-1,2,4-triazole-3,5-diamine]
IC50 (Table 7, formula (V)): < 1000 nM

C[C@H]1CN(c2ccc(Nc3nc(N)n(-c4nnc(Cl)c5c4C4CCC5CC4)n3)cn2)CCN1CC1CC1 [Compound 20, (3S)-1-(4-chloro-5,8-ethano-5,6,7,8-tetrahydrophthalazine-1-yl)-N^3-(6-(4-(cyclopropylmethyl)-3-methylpiperazin-1-yl)pyridin-3-yl)-1H-1,2,4-triazole-3,5-diamine]
IC50 (Table 7, formula (V)): < 1000 nM

CN(C)CC(=O)N1CCc2ncc(Nc3nc(N)n(-c4cc(-c5ccccc5)c5c(n4)C4CCN5CC4)n3)cc2C1 [Compound 4, 1-(1,4-ethano-8-phenyl-1,2,3,4-tetrahydro-1,5-naphthyridin-6-yl)-N^3-(6-[((dimethyl)amino)methylcarbonyl]-5,6,7,8-tetrahydro-1,6-naphthyridine-3-yl)-1H-1,2,4-triazole-3,5-diamine]
IC50 (Table 2, formula (Ib)): < 1000 nM

CCN(CC)[C@H]1CCc2ccc(Nc3nc(N)n(-c4cc(-c5ccccc5)c5c(n4)C4CCN5CC4)n3)cc2CC1 [Compound 35, (7S)-1-(1,4-ethano-8-phenyl-1,2,3,4-tetrahydro-1,5-naphthyridin-6-yl)-N^3-(7-(diethylamino)-6,7,8,9-tetrahydro-5H-benzo[7]annulene-2-yl)-1H-1,2,4-triazole-3,5-diamine]
IC50 (Table 4, formula (III)): < 1000 nM

COc1cccc(-c2cc(-n3nc(Nc4ccc(N5CCC(N6CCCC6)CC5)c(F)c4)nc3N)nc3c2N2CCC3CC2)c1 [Compound 11, 1-(1,4-ethano-8-(3-methoxyphenyl)-1,2,3,4-tetrahydro-1,5-naphthyridin-6-yl)-N^3-(4-(4-(pyrrolidin-1-yl)piperidinyl)-3-fluorophenyl)-1H-1,2,4-triazole-3,5-diamine]
IC50 (Table 3, formula (II)): < 1000 nM

Nc1nc(Nc2ccc3c(c2)CC[C@@H](NC2CCC2)CC3)nn1-c1cc(-c2ccccc2)c2c(n1)C1CCN2CC1 [Compound 38, (7S)-1-(1,4-ethano-8-phenyl-1,2,3,4-tetrahydro-1,5-naphthyridin-6-yl)-N^3-(7-(cyclobutylamino)-6,7,8,9-tetrahydro-5H-benzo[7]annulene-2-yl)-1H-1,2,4-triazole-3,5-diamine]
IC50 (Table 4, formula (III)): < 1000 nM

CC(C)N[C@H]1CCc2ccc(Nc3nc(N)n(-c4cc(-c5ccccc5)c5c(n4)C4CCN5CC4)n3)cc2CC1 [Compound 37, (7S)-1-(1,4-ethano-8-phenyl-1,2,3,4-tetrahydro-1,5-naphthyridin-6-yl)-N^3-(7-(isopropylamino)-6,7,8,9-tetrahydro-5H-benzo[7]annulene-2-yl)-1H-1,2,4-triazole-3,5-diamine]
IC50 (Table 4, formula (III)): < 1000 nM

Cc1ccccc1-c1cc(-n2nc(Nc3ccc(N4CCC(N5CCCC5)CC4)c(F)c3)nc2N)nc2c1N1CCC2CC1 [Compound 12, 1-(1,4-ethano-8-(2-methylphenyl)-1,2,3,4-tetrahydro-1,5-naphthyridin-6-yl)-N^3-(4-(4-(pyrrolidin-1-yl)piperidinyl)-3-fluorophenyl)-1H-1,2,4-triazole-3,5-diamine]
IC50 (Table 3, formula (II)): < 1000 nM

Nc1nc(Nc2cnc3c(c2)CN(C2CCCC2)CC3)nn1-c1cc(-c2ccccc2)c2c(n1)C1CCN2CC1 [Compound 6, 1-(1,4-ethano-8-phenyl-1,2,3,4-tetrahydro-1,5-naphthyridin-6-yl)-N^3-(6-(cyclopentyl)-5,6,7,8-tetrahydro-1,6-naphthyridine-3-yl)-1H-1,2,4-triazole-3,5-diamine]
IC50 (Table 2, formula (Ib)): < 1000 nM

Nc1nc(Nc2ccc(N3CCC(N4CCCC4)CC3)c(F)c2)nn1-c1nc2c(c(-c3ccccc3)n1)CCCC2 [Compound 42, 1-(4-phenyl-5,6,7,8-tetrahydroquinazoline-2-yl)-N^3-(4-(4-(pyrrolidin-1-yl)piperidinyl)-3-fluorophenyl)-1H-1,2,4-triazole-3,5-diamine]
IC50 (Table 9, formula (VII)): < 1000 nM
